# Experimental data published in patent US20240225066A1, “MOGROSIDE COMPOUNDS AND THEIR COMESTIBLE USE” (Firmenich Incorporated, priority 2021, published 2024).
# Target: T1, recombinant human sweet receptor (Homo sapiens, UniProt Q7RTX0+Q8TE23)
# T1 construct: expressed in transfected cells
# T1 sequence (Q8TE23 20-839): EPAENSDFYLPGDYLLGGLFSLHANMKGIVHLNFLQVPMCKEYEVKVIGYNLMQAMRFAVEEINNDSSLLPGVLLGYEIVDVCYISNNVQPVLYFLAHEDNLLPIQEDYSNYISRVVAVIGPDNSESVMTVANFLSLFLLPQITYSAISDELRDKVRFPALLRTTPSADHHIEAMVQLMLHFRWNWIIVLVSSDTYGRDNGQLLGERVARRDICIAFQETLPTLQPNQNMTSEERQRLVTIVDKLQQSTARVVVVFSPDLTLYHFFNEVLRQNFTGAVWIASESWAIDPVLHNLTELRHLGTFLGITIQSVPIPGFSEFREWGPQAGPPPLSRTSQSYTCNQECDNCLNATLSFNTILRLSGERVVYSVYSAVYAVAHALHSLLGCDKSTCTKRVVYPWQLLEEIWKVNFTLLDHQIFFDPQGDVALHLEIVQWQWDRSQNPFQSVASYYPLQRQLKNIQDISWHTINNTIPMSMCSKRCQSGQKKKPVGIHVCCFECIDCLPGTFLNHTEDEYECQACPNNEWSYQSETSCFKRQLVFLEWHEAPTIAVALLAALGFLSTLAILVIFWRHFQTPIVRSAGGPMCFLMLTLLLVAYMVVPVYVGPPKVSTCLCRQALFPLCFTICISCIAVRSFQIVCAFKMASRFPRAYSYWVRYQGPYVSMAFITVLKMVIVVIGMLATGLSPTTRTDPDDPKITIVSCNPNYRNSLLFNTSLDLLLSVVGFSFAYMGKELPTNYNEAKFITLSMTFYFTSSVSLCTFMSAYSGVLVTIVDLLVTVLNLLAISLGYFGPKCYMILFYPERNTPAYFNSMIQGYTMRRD
# T1 sequence (Q7RTX0 21-852): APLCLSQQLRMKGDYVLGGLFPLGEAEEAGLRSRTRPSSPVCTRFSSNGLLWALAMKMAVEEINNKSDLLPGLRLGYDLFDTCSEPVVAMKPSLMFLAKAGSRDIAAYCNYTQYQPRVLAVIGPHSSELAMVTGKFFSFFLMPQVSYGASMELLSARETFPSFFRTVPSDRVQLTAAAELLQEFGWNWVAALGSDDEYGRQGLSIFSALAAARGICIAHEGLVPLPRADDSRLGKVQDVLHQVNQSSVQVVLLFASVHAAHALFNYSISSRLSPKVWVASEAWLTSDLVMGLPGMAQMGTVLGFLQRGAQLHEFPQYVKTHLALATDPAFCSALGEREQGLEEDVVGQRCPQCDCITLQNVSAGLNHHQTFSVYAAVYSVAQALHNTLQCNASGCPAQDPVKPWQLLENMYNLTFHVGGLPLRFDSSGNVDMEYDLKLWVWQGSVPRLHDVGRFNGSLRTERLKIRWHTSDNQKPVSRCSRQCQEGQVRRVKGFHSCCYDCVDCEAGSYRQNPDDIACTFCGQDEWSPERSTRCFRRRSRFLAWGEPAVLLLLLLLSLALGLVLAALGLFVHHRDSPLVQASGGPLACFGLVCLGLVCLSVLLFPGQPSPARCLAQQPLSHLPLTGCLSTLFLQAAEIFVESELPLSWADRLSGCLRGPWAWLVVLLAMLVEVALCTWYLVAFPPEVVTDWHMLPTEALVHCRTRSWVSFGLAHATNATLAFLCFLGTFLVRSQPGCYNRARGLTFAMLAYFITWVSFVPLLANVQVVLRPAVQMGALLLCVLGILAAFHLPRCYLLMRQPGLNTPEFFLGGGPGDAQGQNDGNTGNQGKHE
# Assay: Sweet receptor assay, calcium imaging (Fluo-4 AM) in cells stably expressing the receptor and chimeric G-protein G16g25
# Type: cell-based
# Procedure: Cells stably expressing the recombinant human sweet receptor and the chimeric G-protein G16g25 were dispensed in a 384-well clear bottom plate (Fisher) and incubated overnight at 37° C. and 6% CO2. On the day of the experiment, cells were loaded with 4 μM of the calcium indicator Fluo-4 AM (Invitrogen) in D-PBS for 1 hour at room temperature and excess dye washed away with D-PBS, leaving a residual volume of 25 μL/well. After 30 minutes of rest time the cell plate and the compound plate were transferred into a fluorometric imaging plate reader (Molecular Devices). To determine potency, compound plates were prepared with serial dilutions of compound at 2× the final assay concentration in D-PBS. Imaging and data analysis was performed according to the procedures set forth in Servant et al., PROC. NAT'L ACAD. SCI. USA, vol. 107(10), pp. 4746-51 (2010).
smiles,measurement,setting,value
C[C@H](CC[C@@H](O[C@@H]1O[C@H](CO[C@H]2O[C@H](CO)[C@@H](O)[C@H](O)[C@H]2O)[C@@H](O)[C@H](O)[C@H]1O[C@@H]1O[C@H](CO)[C@@H](O)[C@H](O)[C@H]1O)C(C)(C)O)[C@H]1CC[C@@]2(C)C3CC=C4[C@@H](CC[C@H](O[C@@H]5O[C@H](CO)[C@@H](O[C@@H]6O[C@H](CO)[C@@H](O)[C@H](O)[C@H]6O)[C@H](O)[C@H]5O)C4(C)C)[C@]3(C)[C@H](O)C[C@]12C (some centres unmarked) [MC1],EC50,"Fluo-4 AM calcium signal, fluorometric imaging plate reader, read-out: EC50 of the dose-response curve in the sweet taste assays",8 µM
same,dose-response effect in the sweet taste assays,serial dilutions of compound,showed a dose-response effect indicative of its utility as a sweetener
